Assay results taken from DBAASP.
In brackets after ≈: the same amount, converted by molar mass.

Legend:
Test in all cases: ≥ marks a high value that may be exact or a test limit, other limits are often not marked, values filed in µg/mL are converted to µM
Enterococcus faecium = system: Enterococcus faecium
Escherichia coli O157 = system: Escherichia coli O157
Pseudomonas aeruginosa 1 = system: Pseudomonas aeruginosa 1
Pseudomonas aeruginosa 2 = system: Pseudomonas aeruginosa 2
Pseudomonas aeruginosa 5 = system: Pseudomonas aeruginosa 5
Staphylococcus aureus 1 = system: Staphylococcus aureus 1
Staphylococcus aureus 4 = system: Staphylococcus aureus 4
Staphylococcus aureus 5 = system: Staphylococcus aureus 5
Staphylococcus aureus = system: Staphylococcus aureus
[1] = system: Candida albicans ATCC 90028
Candida albicans = system: Candida albicans
Candida krusei ATCC 6258 = system: Candida krusei ATCC 6258
Candida krusei = system: Candida krusei
[2] = system: Candida parapsilosis ATCC 22019
Candida parapsilosis = system: Candida parapsilosis
[3] = system: Candida tropicalis B51a/5
Candida tropicalis = system: Candida tropicalis
[4] = system: Enterobacter cloacae HNTCC 53001
[5] = system: Enterococcus faecalis ATCC 29212
[6] = system: Escherichia coli ATCC 25922
[7] = system: Klebsiella pneumoniae KK3 9904
[8] = system: Proteus mirabilis ATCC 25933
[9] = system: Pseudomonas aeruginosa ATCC 27853
[10] = system: Staphylococcus aureus ATCC 25923
[11] = system: Staphylococcus epidermidis RP62A
[12] = system: Acinetobacter baumannii ATCC 19606
Acinetobacter junii RT-4 = system: Acinetobacter junii RT-4
Bacillus megaterium Bm11 = system: Bacillus megaterium Bm11
[13] = system: Candida albicans ATCC 10231
Escherichia coli D21 = system: Escherichia coli D21
[14] = system: Pseudomonas aeruginosa ATCC 15692
[15] = system: Pseudomonas syringae pv. tabaci 1918NCPPB
Saccharomyces cerevisiae = system: Saccharomyces cerevisiae
[16] = system: Schizosaccharomyces pombe
[17] = system: Staphylococcus aureus Cowan 1
Staphylococcus capitis 1 = system: Staphylococcus capitis 1
[18] = system: Staphylococcus epidermidis ATCC 12228
[19] = system: Streptococcus pyogenes ATCC 21547
[20] = system: Yersinia pseudotuberculosis YPIII
[21] = system: Bacillus subtilis ATCC 6633
[22] = system: Enterococcus faecalis ATCC 12953
[23] = system: Escherichia coli ATCC 8739
[24] = system: Klebsiella pneumoniae ATCC 13885
[25] = system: Pseudomonas aeruginosa ATCC 15442
[26] = system: Salmonella enterica subsp. enterica serovar Typhimurium ATCC 14028
[27] = system: Staphylococcus aureus ATCC 29213
[28] = system: Streptococcus pyogenes ATCC 19615
[29] = system: Aspergillus flavus KCTC 1375
[30] = system: Enterococcus faecium ATCC 19434
[31] = system: Escherichia coli O157:H7 ATCC 43895
Escherichia coli = system: Escherichia coli
[32] = system: Malassezia furfur KCTC 7744
Pseudomonas aeruginosa = system: Pseudomonas aeruginosa

## CC[C@H](C)[C@H](NC(=O)[C@H](CC(C)C)NC(=O)[C@H](CCCN=C(N)N)NC(=O)[C@@H](NC(=O)[C@H](C)NC(=O)[C@H](CCCCN)NC(=O)[C@H](CO)NC(=O)[C@H](CC(C)C)NC(=O)[C@@H](N)CCC(=O)O)C(C)C)C(=O)N[C@@H](CCCCN)C(=O)O [ELSKAVRLIK]
Enterococcus faecium
  MIC: 10 µM (≈ 11.6 µg/mL)
Escherichia coli O157
  MIC: 20 µM (≈ 23.1 µg/mL)
Pseudomonas aeruginosa 1
  MIC: 20 µM (≈ 23.1 µg/mL)
Pseudomonas aeruginosa 2
  MIC: 10 µM (≈ 11.6 µg/mL)
Pseudomonas aeruginosa 5
  MIC: 14.1 µM (≈ 16.4 µg/mL)
Staphylococcus aureus 1
  MIC: 10 µM (≈ 11.6 µg/mL)
Staphylococcus aureus 4
  MIC: 14.1 µM (≈ 16.4 µg/mL)
Staphylococcus aureus 5
  MIC: ≥ 40 µM
Staphylococcus aureus
  MIC: 20 µM (≈ 23.1 µg/mL)

## CC[C@H](C)[C@H](NC(=O)[C@@H]1CCCN1C(=O)[C@H](CC(C)C)NC(=O)[C@@H](N)Cc1ccccc1)C(=O)N[C@@H](CC(C)C)C(=O)N[C@@H](C)C(=O)N[C@@H](CO)C(=O)N[C@@H](CC(C)C)C(=O)N[C@@H](C)C(=O)N[C@@H](C)C(=O)N[C@@H](CCCCN)C(=O)N[C@@H](Cc1ccccc1)C(=O)NCC(=O)N1CCC[C@H]1C(=O)N[C@@H](CCCCN)C(=O)N[C@@H](CC(C)C)C(=O)N[C@@H](Cc1ccccc1)C(=O)N[C@@H](CO)C(=O)N[C@@H](CC(C)C)C(=O)N[C@H](C(=O)N[C@H](C(=O)N[C@@H](CCCCN)C(=O)N[C@@H](CCCCN)C(=O)N[C@@H](CO)C(=O)O)[C@@H](C)O)C(C)C [FLPILASLAAKFGPKLFSLVTKKS]
[1]
  MIC: 25 µM (≈ 64.4 µg/mL)
Candida albicans
  MIC: 40 µM (≈ 103 µg/mL)
Candida krusei ATCC 6258
  MIC: ≥ 40 µM
Candida krusei
  MIC: ≥ 40 µM
[2]
  MIC: ≥ 40 µM
Candida parapsilosis
  MIC: ≥ 40 µM
[3]
  MIC: 10 µM (≈ 25.8 µg/mL)
Candida tropicalis
  MIC: 20 µM (≈ 51.5 µg/mL)
[4]
  MIC: ≥ 40 µM
[5]
  MIC: 20 µM (≈ 51.5 µg/mL)
[6]
  MIC: 50 µM (≈ 129 µg/mL)
[7]
  MIC: ≥ 40 µM
[8]
  MIC: ≥ 40 µM
[9]
  MIC: 40 µM (≈ 103 µg/mL)
[10]
  MIC: 3 µM (≈ 7.73 µg/mL)
[11]
  MIC: 5 µM (≈ 12.9 µg/mL)

## CC[C@H](C)[C@H](NC(=O)[C@H](CCCN=C(N)N)NC(=O)CNC(=O)[C@H](CC(C)C)NC(=O)[C@H](Cc1ccccc1)NC(=O)[C@H](CCCCN)NC(=O)[C@H](CO)NC(=O)[C@H](Cc1ccccc1)NC(=O)[C@H](Cc1c[nH]c2ccccc12)NC(=O)[C@H](CCCN=C(N)N)NC(=O)[C@@H](NC(=O)[C@@H](N)Cc1ccccc1)C(C)C)C(=O)N[C@@H](CC(C)C)C(N)=O [FVRWFSKFLGRIL]
[12]
  MIC: 6 µM (≈ 10 µg/mL)
Acinetobacter junii RT-4
  MIC: 3 µM (≈ 5 µg/mL)
Bacillus megaterium Bm11
  MIC: 3 µM (≈ 5 µg/mL)
[13]
  MIC: 12 µM (≈ 20 µg/mL)
[5]
  MIC: 12 µM (≈ 20 µg/mL)
[6]
  MIC: 24 µM (≈ 40 µg/mL)
Escherichia coli D21
  MIC: 12 µM (≈ 20 µg/mL)
[14]
  MIC: 12 µM (≈ 20 µg/mL)
[9]
  MIC: 24 µM (≈ 40 µg/mL)
[15]
  MIC: 6 µM (≈ 10 µg/mL)
Saccharomyces cerevisiae
  MIC: 24 µM (≈ 40 µg/mL)
[16]
  MIC: 12 µM (≈ 20 µg/mL)
[10]
  MIC: 6 µM (≈ 10 µg/mL)
[17]
  MIC: 6 µM (≈ 10 µg/mL)
Staphylococcus capitis 1
  MIC: 3 µM (≈ 5 µg/mL)
[18]
  MIC: 3 µM (≈ 5 µg/mL)
[19]
  MIC: 3 µM (≈ 5 µg/mL)
[20]
  MIC: 3 µM (≈ 5 µg/mL)

## CC[C@H](C)[C@H](N)C(=O)N[C@@H](CCCCN)C(=O)N[C@@H](Cc1ccccc1)C(=O)N[C@@H](CCC(=O)O)C(=O)N1CCC[C@H]1C(=O)N1CCC[C@H]1C(=O)N[C@@H](CC(C)C)C(=O)N1CCC[C@H]1C(=O)N1CCC[C@H]1C(=O)N[C@@H](CCCCN)C(=O)N[C@@H](CCCCN)C(=O)N[C@@H](C)C(=O)N[C@@H](Cc1cnc[nH]1)C(N)=O [IKFEPPLPPKKAH]
[21]
  MIC: ≥ 42.6 µM
[22]
  MIC: ≥ 42.6 µM
[23]
  MIC: 21.3 µM (≈ 32 µg/mL)
[24]
  MIC: 21.3 µM (≈ 32 µg/mL)
[8]
  MIC: ≥ 42.6 µM
[25]
  MIC: 21.3 µM (≈ 32 µg/mL)
[26]
  MIC: 42.6 µM (≈ 64 µg/mL)
[27]
  MIC: 42.6 µM (≈ 64 µg/mL)
[28]
  MIC: ≥ 42.6 µM

## CC(C)C[C@H](NC(=O)[C@H](Cc1ccc(O)cc1)NC(=O)[C@H](Cc1cnc[nH]1)NC(=O)[C@@H](NC(=O)[C@H](CC(C)C)NC(=O)[C@H](C)NC(=O)[C@H](C)NC(=O)[C@H](CCCCN)NC(=O)CNC(=O)[C@@H](NC(=O)[C@H](Cc1cnc[nH]1)NC(=O)[C@H](CCCCN)NC(=O)CNC(=O)[C@@H](NC(=O)[C@H](Cc1cnc[nH]1)NC(=O)[C@H](C)NC(=O)[C@H](C)NC(=O)[C@H](CCCCN)NC(=O)[C@H](CCCCN)NC(=O)[C@H](Cc1ccccc1)NC(=O)[C@H](Cc1ccccc1)NC(=O)[C@@H](N)CO)C(C)C)C(C)C)[C@@H](C)O)C(N)=O [SFFKKAAHVGKHVGKAALTHYL]
[29]
  MIC: 20 µM (≈ 48.2 µg/mL)
[1]
  MIC: 14.1 µM (≈ 34.1 µg/mL)
[30]
  MIC: 20 µM (≈ 48.2 µg/mL)
Enterococcus faecium
  MIC: 28.3 µM (≈ 68.2 µg/mL)
[31]
  MIC: 20 µM (≈ 48.2 µg/mL)
Escherichia coli
  MIC: 28.3 µM (≈ 68.2 µg/mL)
[32]
  MIC: 20 µM (≈ 48.2 µg/mL)
[9]
  MIC: 14.1 µM (≈ 34.1 µg/mL)
Pseudomonas aeruginosa
  MIC: 28.3 µM (≈ 68.2 µg/mL)
[10]
  MIC: 20 µM (≈ 48.2 µg/mL)
Staphylococcus aureus
  MIC: 14.1 µM (≈ 34.1 µg/mL)
